From ChEMBL document CHEMBL1156829 (Proc Natl Acad Sci U S A, 2008)

Columns and labels:
[1] = NOVARTIS: Cytotoxicity against human hepatocellular carcinoma cell line (Huh7); type: toxicity, cell-based, Huh-7; settings: Huh7 cells (hepatocellular carcinoma cell line)
Plasmodium falciparum [2] = assay: NOVARTIS: Inhibition of Plasmodium falciparum W2 (drug-resistant) proliferation in erythrocyte-based infection assay; type: functional, organism-based; settings: Plasmodium falciparum, W2; read-out: EC50
Plasmodium falciparum [3] = assay: NOVARTIS: Inhibition of Plasmodium falciparum 3D7 (drug-susceptible) proliferation in erythrocyte-based infection assay; type: functional, organism-based; settings: Plasmodium falciparum, 3D7

CCCCN1C=Nc2cc(C(=O)NCc3ccc(OC)cc3)ccc2C1
CC50 [1]: > 10 µM
EC50 (Plasmodium falciparum [2]): 0.243 µM
EC50 (Plasmodium falciparum [3]): 0.463 µM

O=C(Nc1ccc(Cl)c(Cl)c1)Nc1ccc(Cl)c(Cl)c1
CC50 [1]: 20.2 µM
EC50 (Plasmodium falciparum [2]): 0.46 µM
EC50 (Plasmodium falciparum [3]): 1.03 µM

COc1ccc(C(=O)C[n+]2cc(-c3ccc(OC)cc3)n3c2CCC3)cc1
CC50 [1]: > 100 µM
EC50 (Plasmodium falciparum [2]): 0.822 µM
EC50 (Plasmodium falciparum [3]): 0.892 µM

CCCCOc1ccc(NC2=NC3(CCCC3)NC(N)=N2)cc1
CC50 [1]: > 100 µM
EC50 (Plasmodium falciparum [2]): 2.33 µM
EC50 (Plasmodium falciparum [3]): 1.09 µM

O=C(CN1CCCC1)Nc1ccc(Cc2ccc(NC(=O)CN3CCCC3)cc2)cc1
CC50 [1]: 18.8 µM
EC50 (Plasmodium falciparum [2]): 0.367 µM
EC50 (Plasmodium falciparum [3]): 0.307 µM

COc1ccc(C2C(C(=O)Nc3cccc(OC)c3)c3ccccc3C(=O)N2C2CCCCC2)cc1 (stereo not given)
CC50 [1]: > 100 µM
EC50 (Plasmodium falciparum [2]): 0.332 µM
EC50 (Plasmodium falciparum [3]): 1.11 µM

CCN1CCN(c2cc(C)c3cc(NC(=O)c4ccc(F)c([N+](=O)[O-])c4)ccc3n2)CC1
CC50 [1]: 42.9 µM
EC50 (Plasmodium falciparum [2]): 0.365 µM
EC50 (Plasmodium falciparum [3]): 1.16 µM

C=CCNc1cc(-c2ccccn2)nc(-c2ccccn2)n1
CC50 [1]: > 10 µM
EC50 (Plasmodium falciparum [2]): 0.192 µM
EC50 (Plasmodium falciparum [3]): 0.125 µM

Oc1cc(-c2ccccc2)nc2ccccc12
CC50 [1]: > 93.2 µM
EC50 (Plasmodium falciparum [2]): 0.547 µM
EC50 (Plasmodium falciparum [3]): 1.06 µM

OCc1nc2ccccc2n1CCOc1ccccc1
CC50 [1]: > 10 µM
EC50 (Plasmodium falciparum [2]): 0.0233 µM
EC50 (Plasmodium falciparum [3]): > 1.25 µM

N#Cc1c(N)nc2sc(C(=O)c3ccc(F)cc3)c(N)c2c1-c1ccccc1
CC50 [1]: > 10 µM
EC50 (Plasmodium falciparum [2]): > 0.915 µM
EC50 (Plasmodium falciparum [3]): > 1.25 µM

CCN(CC)C(=O)N1CCN(c2ccc(Nc3ccnc4cc5ccccc5cc34)cc2)CC1
CC50 [1]: > 100 µM
EC50 (Plasmodium falciparum [2]): 2.47 µM
EC50 (Plasmodium falciparum [3]): 0.961 µM

CC1=NOC(=O)C1=Cc1ccc(-c2ccc([N+](=O)[O-])cc2)o1
CC50 [1]: > 100 µM
EC50 (Plasmodium falciparum [2]): 6.5 µM
EC50 (Plasmodium falciparum [3]): > 12.5 µM

CC(=O)N(C1=C(N2CCOCC2)C(=O)c2ccccc2C1=O)c1ccc(Br)cc1
CC50 [1]: 19.1 µM
EC50 (Plasmodium falciparum [2]): 0.2 µM
EC50 (Plasmodium falciparum [3]): 0.239 µM

CCOc1ccc2ncc(S(=O)(=O)c3ccc(OC)cc3)c(N3CCN(C)CC3)c2c1
CC50 [1]: > 100 µM
EC50 (Plasmodium falciparum [2]): 2.08 µM
EC50 (Plasmodium falciparum [3]): 0.1 µM

CCN(CC)CCCC(C)NC(=O)CSc1nc2ccccc2c(=O)n1-c1cccc(Cl)c1 (stereo not given)
CC50 [1]: > 10 µM
EC50 (Plasmodium falciparum [2]): > 1.07 µM
EC50 (Plasmodium falciparum [3]): > 1.25 µM

COc1cc2nc(SCC(C)C)n(CCCn3ccnc3)c(=N)c2cc1OC
CC50 [1]: 19.9 µM
EC50 (Plasmodium falciparum [2]): 0.926 µM
EC50 (Plasmodium falciparum [3]): 0.822 µM

CC(C)N1CCCC(C(=O)Nc2ccc(-c3nc4ccccc4[nH]3)cc2)C1 (stereo not given)
CC50 [1]: > 10 µM
EC50 (Plasmodium falciparum [2]): 0.593 µM
EC50 (Plasmodium falciparum [3]): 0.969 µM

CC(=O)N(C1=C(N2CCCCC2)C(=O)c2ccccc2C1=O)c1cccc(F)c1
CC50 [1]: 23.7 µM
EC50 (Plasmodium falciparum [2]): 0.109 µM
EC50 (Plasmodium falciparum [3]): 0.146 µM

O=C(NCCCCNc1ccnc2cc(Cl)ccc12)c1ccccc1Br
CC50 [1]: > 10 µM
EC50 (Plasmodium falciparum [2]): 0.494 µM
EC50 (Plasmodium falciparum [3]): 0.468 µM

COc1cccc(CNc2cc(C(=O)NCCNC(C)=O)cc(S(=O)(=O)N(C)C)c2)c1OC
CC50 [1]: > 10 µM
EC50 (Plasmodium falciparum [2]): > 1.21 µM
EC50 (Plasmodium falciparum [3]): > 0.431 µM

CN(C)c1cc[n+](OC(=O)N2CCCCC2)cc1
CC50 [1]: > 10 µM
EC50 (Plasmodium falciparum [2]): > 0.455 µM
EC50 (Plasmodium falciparum [3]): 0.133 µM

NCCCNC(=O)COC(c1ccccc1)c1cccnc1Cl (stereo not given)
CC50 [1]: > 10 µM
EC50 (Plasmodium falciparum [2]): 0.1 µM
EC50 (Plasmodium falciparum [3]): 0.0817 µM

Cc1ccc(Nc2nc(NCCO)c3ccccc3n2)cc1C
CC50 [1]: 4.9 µM
EC50 (Plasmodium falciparum [2]): 0.108 µM
EC50 (Plasmodium falciparum [3]): 0.175 µM

COc1ccccc1N1CCN(c2ccc(NC(=O)c3cccc(F)c3)cc2C(=O)N2CCCC2)CC1
CC50 [1]: > 100 µM
EC50 (Plasmodium falciparum [2]): 6.35 µM
EC50 (Plasmodium falciparum [3]): > 12.5 µM

CCCCCCCc1cc(O)c2c3c(c(=O)oc2c1)CCC(C)C3 (stereo not given)
CC50 [1]: > 100 µM
EC50 (Plasmodium falciparum [2]): 1.73 µM
EC50 (Plasmodium falciparum [3]): 1.21 µM

c1cc(-c2cccc3cccnc23)nc(N2CCN(CCN3CCCC3)CC2)c1
CC50 [1]: 70.1 µM
EC50 (Plasmodium falciparum [2]): 0.103 µM
EC50 (Plasmodium falciparum [3]): 0.0584 µM

O=C1OC(c2ccccc2)=NC1=C(Cl)Cl
CC50 [1]: > 10 µM
EC50 (Plasmodium falciparum [2]): > 1.25 µM
EC50 (Plasmodium falciparum [3]): > 1.16 µM

Cc1nc(NCCCN(C)C)c2sc3nc4c(cc3c2n1)COC(C)(C)C4
CC50 [1]: > 100 µM
EC50 (Plasmodium falciparum [2]): 1.63 µM
EC50 (Plasmodium falciparum [3]): > 12.5 µM

FC(F)(F)c1cccc(-c2cncc(N3CCN(c4ccccn4)CC3)n2)c1
CC50 [1]: 45.7 µM
EC50 (Plasmodium falciparum [2]): 1.91 µM
EC50 (Plasmodium falciparum [3]): 5.77 µM

Cc1ccc(N=C2NC(=O)/C(=C/c3cc(C)n(-c4cccc([N+](=O)[O-])c4)c3C)S2)cc1
CC50 [1]: > 100 µM
EC50 (Plasmodium falciparum [2]): 0.985 µM
EC50 (Plasmodium falciparum [3]): 0.353 µM

CC(=O)N1c2ccccc2C(C)(c2ccc(Br)cc2)CC1(C)C (stereo not given)
CC50 [1]: 71.4 µM
EC50 (Plasmodium falciparum [2]): 2.42 µM
EC50 (Plasmodium falciparum [3]): 4.27 µM

COc1ccccc1NC(=O)C(=O)NCCc1ccc(OC)c(OC)c1
CC50 [1]: > 100 µM
EC50 (Plasmodium falciparum [2]): > 10.8 µM
EC50 (Plasmodium falciparum [3]): > 10.3 µM

CC1CCC(C(C)C)C(OC(=O)Cn2c(-c3ccccc3)[n+](C)c3ccccc32)C1 (stereo not given)
CC50 [1]: > 11.2 µM
EC50 (Plasmodium falciparum [2]): 0.426 µM
EC50 (Plasmodium falciparum [3]): 0.376 µM

CCC(=O)Nc1cc(NC(=O)CSc2nc(C)c(CC)c(O)n2)ccc1C
CC50 [1]: 3.92 µM
EC50 (Plasmodium falciparum [2]): 0.00161 µM
EC50 (Plasmodium falciparum [3]): > 1.25 µM
